Test results taken from ChEMBL document CHEMBL3351704, “Synthesis and biological evaluation of 4-oxoquinoline-3-carboxamides derivatives as potent anti-fibrosis agents” (Bioorg Med Chem Lett, 2014).
Active and inactive are the calls of the source. The rule behind the calls is not given here.

What was measured:
[1] = tested on: NRK-49F; assay: Inhibition of TGF-beta1-induced total collagen accumulation in rat NRK-49F cells at 10 uM; assay type: functional
[2] = tested on: RAW264.7; assay: Inhibition of LPS-induced TNFalpha production in mouse RAW264.7 cells 10 uM; assay type: functional
[3] = tested on: NRK-49F; assay: Inhibition of TGF-beta1-induced total collagen accumulation in rat NRK-49F cells at 3 uM by picro-sirius red staining method; assay type: functional, cell-based
[4] = tested on: NRK-49F; assay: Inhibition of TGF-beta1-induced total collagen accumulation in rat NRK-49F cells; assay type: functional, cell-based
[5] = tested on: NRK-49F; assay: Inhibition of TGF-beta1-induced total collagen accumulation in rat NRK-49F cells at 5 uM by picro-sirius red staining method; assay type: functional, cell-based
[6] = tested on: Mus musculus; assay: Anti-fibrotic activity in mouse bleomycin-induced lung fibrosis model assessed as reduction in neutrophils in bronchoalveolar lavage fluid at 20 mg/kg/day, ip before bleomycin injection; assay type: functional; settings: route intraperitoneal
[7] = tested on: Mus musculus; assay: Anti-fibrotic activity in mouse bleomycin-induced lung fibrosis model assessed as reduction in inflammatory infiltrate level at 20 mg/kg/day, ip before bleomycin injection by H and E staining; assay type: functional, organism-based
[8] = tested on: Mus musculus; assay: Anti-fibrotic activity in mouse bleomycin-induced lung fibrosis model assessed as reduction of lung collagen deposition at 20 mg/kg/day, ip before bleomycin injection by H and E staining; assay type: functional, organism-based
[9] = tested on: Mus musculus; assay: Anti-fibrotic activity in mouse bleomycin-induced lung fibrosis model assessed as reduction in leukocytes in bronchoalveolar lavage fluid at 20 mg/kg/day, ip before bleomycin injection; assay type: functional; settings: route intraperitoneal
[10] = tested on: Mus musculus; assay: Anti-fibrotic activity in mouse bleomycin-induced lung fibrosis model assessed as cumulative proportion of survival at 20 mg/kg/day, ip before bleomycin injection measured on day 28; assay type: functional; settings: 672 h, route intraperitoneal
[11] = tested on: Mus musculus; assay: Anti-fibrotic activity in mouse bleomycin-induced lung fibrosis model assessed as reduction in lung injury at 20 mg/kg/day, ip before bleomycin injection by H and E staining; assay type: functional, organism-based
[12] = tested on: Mus musculus; assay: Anti-fibrotic activity in mouse bleomycin-induced lung fibrosis model assessed as reduction in lymphocytes in bronchoalveolar lavage fluid at 20 mg/kg/day, ip before bleomycin injection; assay type: functional; settings: route intraperitoneal
[13] = tested on: Mus musculus; assay: Anti-fibrotic activity in mouse bleomycin-induced lung fibrosis model assessed as slowing of body weight loss at 20 mg/kg/day, ip before bleomycin injection measured on day 28; assay type: functional, organism-based
[14] = tested on: Mus musculus; assay: Anti-fibrotic activity in mouse bleomycin-induced lung fibrosis model assessed as reduction in hydroxyproline level at 20 mg/kg/day, ip before bleomycin injection; assay type: functional

In the case of `CC(C)(C)c1ccc2[nH]cc(C(=O)Nc3ccc(C(C)(C)C)c([N+](=O)[O-])c3)c(=O)c2c1`, the inhibition at 10 µM [1] is reported as 75.7% and the “inhibition (INH)” value [2] is reported as 47.7%.
For `CN1CCN(CCn2cc(C(=O)Nc3ccc(C(C)(C)C)cc3)c(=O)c3cc(C(C)(C)C)ccc32)CC1`, the inhibition at 10 µM [1] was 46.6%.
With `CC(C)(C)c1ccc(NC(=O)c2cn(CCN3CCCC3)c3ccc(C(C)(C)C)cc3c2=O)cc1` the inhibition at 10 µM [1] was 44.8%.
With `CC(C)(C)c1ccc2[nH]cc(C(=O)Nc3ccccc3C(C)(C)C)c(=O)c2c1` the inhibition at 10 µM [1] was 54.3%.
Work on `COc1ccc(NC(=O)c2c[nH]c3ccc(C(C)(C)C)cc3c2=O)cc1` yielded an inhibition at 10 µM [1] of 23.5%.
In the case of `CC(C)(C)c1ccc(NC(=O)c2cn(CCN3CCOCC3)c3ccc(C(C)(C)C)cc3c2=O)cc1`, the inhibition [3] is reported as “Active”, the inhibition at 10 µM [1] is reported as 71.1% and the “inhibition (INH)” value [2] is reported as 69.5%. For the same compound, the IC50 [4] was 2300 nM and the inhibition [5] was “Active”.
With `CC(C)(C)c1ccc2[nH]cc(C(=O)Nc3cc(O)c(C(C)(C)C)cc3C(C)(C)C)c(=O)c2c1` the inhibition at 10 µM [1] was 73.8% and the “inhibition (INH)” value [2] was 45.7%.
`COc1cc(NC(=O)c2c[nH]c3ccc(C(C)(C)C)cc3c2=O)cc(OC)c1OC` was tested, and the inhibition in vivo at 20 mg/kg/day [6] was 57.7%, the inhibition [7] was “Active” and the inhibition [8] was “Active”. The inhibition in vivo at 20 mg/kg/day [9] was 54.8%, the survival at 20 mg/kg/day [10] was 72.2% and the inhibition [3] was “Active”. The inhibition [11] was “Active”, the inhibition in vivo at 20 mg/kg/day [12] was 15.8% and the inhibition at 10 µM [1] was 77.1%. For the same compound, the “inhibition (INH)” value [2] was 70.8%, the Activity [13] was “Active” and the IC50 [4] was 2500 nM. For the same compound, the inhibition in vivo at 20 mg/kg/day ([14]; route intraperitoneal) was 52.4% and the inhibition [5] was “Active”.
Compound `COc1ccc2[nH]cc(C(=O)Nc3cc(O)c(C(C)(C)C)cc3C(C)(C)C)c(=O)c2c1` has an inhibition at 10 µM [1] of 53.1%.
`CC(C)(C)c1ccc(NC(=O)c2cn(CCCl)c3ccc(C(C)(C)C)cc3c2=O)cc1` showed an inhibition at 10 µM [1] of 35.8%.
`CC(C)(C)c1ccc2[nH]cc(C(=O)Nc3ccc(Cl)cc3)c(=O)c2c1` gave an inhibition at 10 µM [1] of 27.2%.
For `CC(C)(C)c1ccc2[nH]cc(C(=O)Nc3cccc(Cl)c3)c(=O)c2c1`, the inhibition at 10 µM [1] was 30.5%.
For `CCc1ccc(NC(=O)c2c[nH]c3ccc(C(C)(C)C)cc3c2=O)cc1`, the inhibition at 10 µM [1] was 19.4%.
For `CC(C)(C)c1cc(C(C)(C)C)c(NC(=O)c2c[nH]c3ccccc3c2=O)cc1O` [IVACAFTOR], the inhibition [7] was “inactive”, the inhibition [8] was “inactive” and the inhibition [11] was “inactive”. The inhibition at 10 µM [1] was 64.7%, the “inhibition (INH)” value [2] was 63.2% and the IC50 [4] was 4000 nM.
Work on `CC(C)(C)c1ccc(NC(=O)c2cn(Cc3ccccc3)c3ccc(C(C)(C)C)cc3c2=O)cc1` yielded an inhibition at 10 µM [1] of 9.1%.
`CCc1ccc2[nH]cc(C(=O)Nc3cc(O)c(C(C)(C)C)cc3C(C)(C)C)c(=O)c2c1` was tested, and the inhibition at 10 µM [1] was 55.9%.
For `COc1ccc(NC(=O)c2c[nH]c3ccc(C(C)(C)C)cc3c2=O)cc1OC`, the inhibition at 10 µM [1] was 32.6%.
`CCCCn1cc(C(=O)Nc2ccc(C(C)(C)C)cc2)c(=O)c2cc(C(C)(C)C)ccc21` gave an inhibition at 10 µM [1] of 16.9%.
For `Cc1ccc(NC(=O)c2c[nH]c3ccc(C(C)(C)C)cc3c2=O)cc1`, the inhibition at 10 µM [1] was 28.9%.
`CC(C)(C)c1ccc2[nH]cc(C(=O)Nc3ccc(F)cc3)c(=O)c2c1` gave an inhibition at 10 µM [1] of 23.5%.
With `Cc1ccc2[nH]cc(C(=O)Nc3cc(O)c(C(C)(C)C)cc3C(C)(C)C)c(=O)c2c1` the inhibition at 10 µM [1] was 49.9%.
`CC(C)(C)c1cc(C(C)(C)C)c(NC(=O)c2c[nH]c3ccc(F)cc3c2=O)cc1O` showed an inhibition at 10 µM [1] of 51.6%.
With `CC(C)(C)c1cccc(NC(=O)c2c[nH]c3ccc(C(C)(C)C)cc3c2=O)c1` the inhibition at 10 µM [1] was 44.8%.
`COc1ccccc1NC(=O)c1c[nH]c2ccc(C(C)(C)C)cc2c1=O` gave an inhibition at 10 µM [1] of 47.9%.
`CC(C)(C)c1ccc(NC(=O)c2c[nH]c3ccc(C(C)(C)C)cc3c2=O)cc1` was tested, and the inhibition in vivo at 20 mg/kg/day [6] was 39.7%, the inhibition [7] was “inactive” and the inhibition [8] was “inactive”. The inhibition in vivo at 20 mg/kg/day [9] was 40.3%, the survival at 20 mg/kg/day [10] was 83.3% and the inhibition [3] was “Active”. For the same compound, the inhibition [11] was “inactive”, the inhibition in vivo at 20 mg/kg/day [12] was 33.6% and the inhibition at 10 µM [1] was 81%. The “inhibition (INH)” value [2] was 61.6%, the Activity [13] was “Active” and the IC50 [4] was 2000 nM. For the same compound, the inhibition [14] was “Active”.
For `CC(C)(C)c1ccc2[nH]cc(C(=O)Nc3ccc(C(C)(C)C)c(N)c3)c(=O)c2c1`, the inhibition [3] was “Active”, the inhibition at 10 µM [1] was 67.9% and the “inhibition (INH)” value [2] was 71.3%. The IC50 [4] was 4100 nM.
Compound `CN1CCN(CCCn2cc(C(=O)Nc3ccc(C(C)(C)C)cc3)c(=O)c3cc(C(C)(C)C)ccc32)CC1` has an inhibition at 10 µM [1] of 52.1%.
`CC(C)(C)c1ccc(NC(=O)c2cn(CCN3CCCCC3)c3ccc(C(C)(C)C)cc3c2=O)cc1` gave an inhibition at 10 µM [1] of 30.1%.
`CC(C)(C)c1ccc(NC(=O)c2cn(CCCN3CCOCC3)c3ccc(C(C)(C)C)cc3c2=O)cc1` was tested, and the inhibition at 10 µM [1] was 30.2%.
`CCn1cc(C(=O)Nc2ccc(C(C)(C)C)cc2)c(=O)c2cc(C(C)(C)C)ccc21` gave an inhibition at 10 µM [1] of 34.3%.
